One series has as its target T1, ETA receptors (Homo sapiens, UniProt P25101).
T1 construct: host or cells: HEK293
T1 sequence (P25101 21-427): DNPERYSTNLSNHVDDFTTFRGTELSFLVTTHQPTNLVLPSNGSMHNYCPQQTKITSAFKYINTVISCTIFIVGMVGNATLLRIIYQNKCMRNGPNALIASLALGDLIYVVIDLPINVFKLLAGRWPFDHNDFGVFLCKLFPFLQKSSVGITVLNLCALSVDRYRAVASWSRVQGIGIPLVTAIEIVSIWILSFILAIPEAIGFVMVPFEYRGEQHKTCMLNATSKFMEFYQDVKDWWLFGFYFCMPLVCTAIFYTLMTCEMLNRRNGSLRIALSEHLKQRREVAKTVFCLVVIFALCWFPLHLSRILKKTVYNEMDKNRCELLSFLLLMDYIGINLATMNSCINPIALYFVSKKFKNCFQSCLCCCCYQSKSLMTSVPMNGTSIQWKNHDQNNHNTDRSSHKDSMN
The series is described as follows: Effect on calcium current in cells stably expressing ETA receptors (FLIPR, antagonist mode). In kind it is cell-based. To be noted: HEK293-ETA cells, Fluo-8 AM, FLIPR Tetra; read-out: IC50 values of compounds on calcium current in cells stably expressing ETA receptors. The source says: Test Example 2. Determination of the Effect of the Compounds of the Present Invention on Calcium Current in Cells Stably Expressing ETA Receptors
• Antagonistic effect of test compounds on HEK293-ETA cell activity.
• DMEM, high glucose (Gibco: 12100); • Fetal bovine serum (Biosera: FB-1058/500); • P/S (Biosera: XC-A4122); • 5× Matrigel (Corning: 354230); • HBSS (Sigma: H1387); • HEPES (Invitrogen: 15630080); • Fluo-8 AM (AAT Bioquest: 21080); • Probenecid (Sigma: P8761); • Pluronic F-127 (Sigma: P2443-250G); • Endothelin 1 (MCE: HY—P0202); • Zibotentan (MCE: HY-10088); • 1000× Fluo-8 AM (2 mM): Fluo-8 AM was dissolved in DMSO, the mixture was shaken for 1-2 min, sub-packaged and stored at −20° C.; • Complete culture medium: DMEM+10% FBS+1×P/S; • Cell seeding medium: DMEM+10% FBS+1×PS; • Experimental buffer 1: 1×HBSS+20 mM HEPES+1 mM Probenecid+0.025% Pluronic F-127; • Experimental buffer 2: 1×HBSS+20 mM HEPES+0.075% Pluronic F-127; • 1× Matrigel: 5× Matrigel was diluted with DMEM; • Cell line: HDB HEK293-ETA.
• 1) HEK293-ETA cell line was cultured in complete culture medium at 37° C., 5% CO2 to 70%-90% confluence. • 2) the 384-well cell plate was coated with 1× Matrigel with 5 μL/well at room temperature for 10 to 30 min. • 3) the cells were digested and resuspended in cell seeding medium, inoculation was performed at 8,000 cells/well/20 μL in a 384-well cell culture plate, and the cells were cultured at 37° C., 5% CO2 for 24 h. • 4) the cell culture plate was taken out of the CO2 incubator and equilibrated at room temperature for 10 min. • 5) 1000× Fluo-8 AM was taken and diluted to 1× Fluo-8 AM with experimental buffer 1 that has been equilibrated to room temperature, with a concentration of 2 μM. • 6) the culture medium was removed from the cell culture plate, 20 μL of 1× Fluo-8 AM was added to each well, the mixture was centrifuged at 300 rpm for 60 seconds at room temperature, and incubated at room temperature in the dark for 1 h. • 7) positive control compound and test compound working solution (3×) were formulated: • (1) instrument Bravo was used to dilute the compound to 11 concentration points on the 384-well Echo compound plate (LABCYTE: LP-0200); • (2) instrument ECHO was used to transfer 90 nL of compound per well (compound storage concentration, such as the highest concentration point 10 mM) to the 384-well compound plate (PE: 6008590); • (3) Multidrop Combi was used to add 30 μL of experimental buffer 2 to the 384-well compound plate (PE: 6008590), the positive control compound and test compound were diluted to 30 μM (3×), and placed at room temperature until use. • 8) FLIPR Tetra was used to add 10 μL of diluted 3× compound into the experimental well of the corresponding 384-well cell plate, the compound and cells were incubated for 10 min at room temperature, then 10 μL of diluted 4× agonist was added, and the data was read and collected at the same time.
FLIPR Tetra was used to read and collect the fluorescence signal value (RFU). The maximum RFU value was used to calculate the percent activation data based on the readings of the Low control (DMSO control) and High control (100 nM positive compound) experimental groups {% activation rate=(RFUsample−RFUlow control)/(RFUhigh control−RFUlow control)×100}. The concentration of the test compound was 11 concentrations after diluting the reaction system 3 times, ranging from 10 μM to 0.17 nM.

A short description of series [1]: Rat pharmacokinetic evaluation test, oral administration. In kind it is in vivo. To be noted: male, SD rats, p.o. 5 mg/kg, plasma; for MRT inf: read-out: MRT0-∞. On the procedure: SD rats were used as test animals to study the pharmacokinetic behavior of the compounds of the present invention in the rat body (plasma) after oral administration at a dose of 5 mg/kg.
3 SD rats/group, male, from Shanghai Jiesijie Experimental Animal Co., Ltd., animal production license number (SCXK (Shanghai) 2013-0006 N0.311620400001794).
• 0.5% CMC-Na (1% Tween80) was dissolved with ultrasound, and formulated into a clear solution or homogeneous suspension.
• p.o. respectively after the rats were fasted overnight; • the p.o. dose was 5 mg/kg and the administration volume was 10 mL/kg.
After oral administration of rats, 0.2 mL of blood was collected from the jugular vein at 0.25 h, 0.5 h, 1.0 h, 2.0 h, and 4.0 h, placed in an EDTA-2K test tube, centrifuged at 6000 rpm for 6 min at 4° C. to separate plasma which was stored at −80° C.; the rats can eat 4 h after administration.
• 1) 160 μL of acetonitrile was added to 40 μL of plasma sample for precipitation, mixed and centrifuged at 3500×g for 5 to 20 min. • 2) the treated supernatant solution was taken and subjected to LC/MS/MS to analyze the concentrations of the test compounds. LC/MS/MS analysis instrument: AB Sciex API 4000 Qtrap.
• Liquid phase conditions: Shimadzu LC-20AD pump • chromatographic column: AgilentZORBAX XDB-C18 (50×2.1 mm, 3.5 μm) mobile phase: liquid A was 0.1% aqueous formic acid solution, liquid B was acetonitrile • flow rate: 0.4 mL/min • Elution time: 0-4.0 min, the eluent was as follows:
The main pharmacokinetic parameters were calculated using WinNonlin 6.1.

SMILES strings stand for the structures.

One may read the IC50 as the point on the concentration scale where inhibition reaches its midpoint. For orientation: AUC(0-inf) means total exposure, with the tail of the curve extrapolated. By Cmax is commonly meant the maximum level reached in the sampled fluid or tissue. The Tmax is the time from dosing to the highest level.

Take `CCCCC1=NC2(CCCC2)C(=O)N1Cc1ccc(-c2ccccc2S(=O)(=O)Nc2noc(C)c2Cl)c(COCC(F)(F)F)c1` [Example 86]: the IC50 on ETA receptors was 13.9 nM.

For `CCCCC1=NC2(CC3CC3C2)C(=O)N1Cc1ccc(-c2ccccc2S(=O)(=O)Nc2noc(C)c2C)c(COCC)c1` (stereo not shown) [Example 87, 4′-((2′-butyl-5′-oxaspiro[bicyclo[3.1.0]hexane-3,4′-imidazole]-1′(5′H)-yl)methyl)-N-(4,5-dimethylisoxazol-3-yl)-2′-(ethoxymethyl)-[1,1′-biphenyl]-2-sulfonamide], in series [1], the total exposure AUC(0-inf) is 9760 ng·h/mL, the Cmax was found to be 2630 ng/mL, the time to peak (Tmax) is 30 min and the MRT inf was determined as 3.8 h. Moreover, the IC50 at ETA receptors came to 8.2 nM.

As for `[2H]C([2H])(OCC)c1cc(CN2C(=O)C3(CCCC3)N=C2CCCC)ccc1-c1ccccc1S(=O)(=O)Nc1noc(C)c1Cl` [Example 49, 4′-((2-butyl-4-oxo-1,3-diazospiro[4.4]non-1-en-3-yl)methyl)-N-(4-chloro-5-methylisoxazol-3-yl)-2′-(ethoxydeuteriummethyl)-[1,1′-biphenyl]-2-sulfonamide], the IC50 on ETA receptors came to 12.9 nM.

Regarding `CCCCC1=NC2(CC3CC3C2)C(=O)N1Cc1ccc(-c2ccccc2S(=O)(=O)Nc2noc(C)c2Cl)c(COCC)c1` (stereo not shown) [Example 65, 4′-((2′-butyl-5′-oxaspiro[bicyclo[3.1.0]hexane-3,4′-imidazole]-1′(5′H)-yl)methyl)-N-(4-chloro-5-methylisoxazol-3-yl)-2′-(ethoxymethyl)-[1,1′-biphenyl]-2-sulfonamide], the IC50 on ETA receptors was 7.2 nM.

Regarding `CCCCC1=NC2(CCCC2)C(=O)N1Cc1ccc(-c2ccccc2S(=O)(=O)Nc2noc(C)c2Br)c(COCC)c1` [Example 46, 2-[4-[(2-butyl-4-oxo-1,3-diazaspiro[4.4]non-1-en-3-yl)methyl]-2-(ethoxymethyl)phenyl]-N-(4-bromo-5-methyl-isoxazol-3-yl)benzsulfamide], in series [1], the total exposure AUC(0-inf) was determined as 13800 ng·h/mL, the maximum concentration (Cmax) came to 2300 ng/mL, the Tmax was found to be 30 min and the MRT inf is 6.6 h.

As for `CCCCC1=NC2(CCCCC2)C(=O)N1Cc1ccc(-c2ccccc2S(=O)(=O)Nc2noc(C)c2Cl)c(COCC)c1` [Example 68, 4′-((2-2-4-4-oxo-1,3-diazaspiro[4.5]dec-1-en-3-yl)methyl)-N-(4-chloro-5-methylisoxazol-3-yl)-2′-(ethoxymethyl)-[1,1′-biphenyl]-2-sulfonamide], at ETA receptors, the 50% inhibitory concentration (IC50) was 18.7 nM.

The record behind these values is patent publication US20240368123A1, “AROMATIC RING-CONTAINING BIOLOGICAL ANTAGONIST, AND PREPARATION METHOD THEREFOR AND USE THEREOF” (SHANGHAI HANSOH BIOMEDICAL CO., LTD., priority 2021, published 2024).
